Laboratory results taken from patent publication US20260265195A1, “SARM1 MODULATORS, PREPARATIONS, AND USES THEREOF” (SIRONAX LTD, priority 2022, published 2026).

target: T1, SARM1 (50-724) (Homo sapiens, UniProt Q6SZW1); assay: SARM1 (50-724) enzymatic assay (NMN-activated NAD+ hydrolysis, LC-MS/MS readout); assay type: biochemical; conditions: purified SARM1 (50-724) 2 nM, 200 μM NMN activator, 100 μM NAD+ substrate, 1 h at room temperature, read-out: IC50 (SARM1 inhibitory activity)
T1 construct: Purified SARM1 (50-724) with a final concentration of 2 nM
T1 sequence (Q6SZW1 50-724): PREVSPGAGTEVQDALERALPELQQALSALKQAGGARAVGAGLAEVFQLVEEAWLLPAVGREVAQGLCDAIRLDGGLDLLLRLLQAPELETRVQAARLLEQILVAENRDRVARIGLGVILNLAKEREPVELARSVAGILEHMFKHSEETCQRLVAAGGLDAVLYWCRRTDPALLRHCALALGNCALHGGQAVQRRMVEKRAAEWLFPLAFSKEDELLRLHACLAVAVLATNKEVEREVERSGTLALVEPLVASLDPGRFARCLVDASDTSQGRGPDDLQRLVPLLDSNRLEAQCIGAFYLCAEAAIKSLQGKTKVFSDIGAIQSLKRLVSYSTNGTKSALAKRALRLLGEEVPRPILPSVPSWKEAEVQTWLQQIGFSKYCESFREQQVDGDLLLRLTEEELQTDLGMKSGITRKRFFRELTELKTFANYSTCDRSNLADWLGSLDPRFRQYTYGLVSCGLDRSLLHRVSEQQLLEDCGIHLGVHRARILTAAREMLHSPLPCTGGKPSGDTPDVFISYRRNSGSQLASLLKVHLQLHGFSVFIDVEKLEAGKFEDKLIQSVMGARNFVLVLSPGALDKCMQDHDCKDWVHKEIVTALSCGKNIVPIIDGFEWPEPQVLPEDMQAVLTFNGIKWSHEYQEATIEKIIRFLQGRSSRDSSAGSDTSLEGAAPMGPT
Method in brief: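 Purified human SARM1 (50-724), 2 nM final in DPBS, pre-incubated 15 min at RT with compound (1% DMSO), then started with 200 μM NMN activator and 100 μM NAD+. After 1 h at RT, quenched with 70% acetonitrile; analysed by LC-MS/MS.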

Row | IC50 | Compound
1 | ≤ 0.1 µM | O=C(c1nc2cc(C(F)(F)F)ccc2[nH]1)N(c1cn[nH]c1)c1cccc(Cl)c1Cl [Compound 127, N-(2,3-dichlorophenyl)-N-(1H-pyrazol-4-yl)-5-(trifluoromethyl)-1H-benzo[d]imidazole-2-carboxamide]
2 | 0.101 to 0.5 µM | Cn1cc(-c2ccc3[nH]c(C(=O)N(CCO)c4cccc(Cl)c4Cl)nc3c2)cn1 [Compound 139, N-(2,3-dichlorophenyl)-N-(2-hydroxyethyl)-5-(1-methyl-1H-pyrazol-4-yl)-1H-benzo[d]imidazole-2-carboxamide]
3 | ≤ 0.1 µM | COC(=O)CN(C(=O)c1nc2cc(C(F)(F)F)ccc2[nH]1)c1cccc(Cl)c1Cl [Compound 140, Methyl N-(2,3-dichlorophenyl)-N-(5-(trifluoromethyl)-1H-benzo[d]imidazole-2-carbonyl)glycinate]
4 | ≥ 1 µM | Cc1nc(C(=O)N(C)C2CCCC2)[nH]c1C [Compound 59, N-cyclopentyl-N,4,5-trimethyl-1H-imidazole-2-carboxamide]
5 | ≤ 0.1 µM | O=C(c1nc2cc(C(F)(F)F)ccc2[nH]1)N(Cc1cc[nH]n1)c1cccc(Cl)c1Cl [Compound 132, N-((1H-pyrazol-3-yl)methyl)-N-(2,3-dichlorophenyl)-5-(trifluoromethyl)-1H-benzo[d]imidazole-2-carboxamide]
6 | ≤ 0.1 µM | CC(C)(O)CN(C(=O)c1nc2cc(C(F)(F)F)ccc2[nH]1)c1cccc(Cl)c1Cl [Compound 168, N-(2,3-dichlorophenyl)-N-(2-hydroxy-2-methylpropyl)-5-(trifluoromethyl)-1H-benzo[d]imidazole-2-carboxamide]
7 | ≤ 0.1 µM | O=C(c1nc2cc(C(F)(F)F)ccc2[nH]1)N(CCN1CC(F)(F)C1)c1cccc(Cl)c1Cl [Compound 116, N-(2,3-dichlorophenyl)-N-(2-(3,3-difluoroazetidin-1-yl)ethyl)-5-(trifluoromethyl)-1H-benzo[d]imidazole-2-carboxamide]
8 | ≤ 0.1 µM | CN1CCC(N(C(=O)c2nc3cc(C(F)(F)F)ccc3[nH]2)c2cccc(F)c2Cl)C1=O (racemic) [Compound 240, N-(2-chloro-3-fluorophenyl)-N-(1-methyl-2-oxopyrrolidin-3-yl)-5-(trifluoromethyl)-1H-benzo[d]imidazole-2-carboxamide]
9 | ≥ 1 µM | COc1ccccc1N(C)C(=O)c1[nH]c2ccc(C)cc2c1CO [Compound 13, 3-(hydroxymethyl)-N-(2-methoxyphenyl)-N,5-dimethyl-1H-indole-2-carboxamide]
10 | 0.101 to 0.5 µM | CC1(O)CC(N(C(=O)c2nc3cc(C(F)(F)F)ccc3[nH]2)c2cccc(F)c2Cl)C1 (stereo not shown) [Compound 239, N-(2-chloro-3-fluorophenyl)-N-(3-hydroxy-3-methylcyclobutyl)-5-(trifluoromethyl)-1H-benzo[d]imidazole-2-carboxamide]
11 | ≤ 0.1 µM | Cc1ccc2[nH]c(C(=O)N(C)c3cccc(Cl)c3Cl)nc2c1 [Compound 123, N-(2,3-dichlorophenyl)-N,5-dimethyl-1H-benzimidazole-2-carboxamide]
12 | ≥ 1 µM | Cc1ccc2[nH]c(C(=O)N(C)C3CCN(C(=O)OC(C)(C)C)CC3)c(CNc3ccccn3)c2c1 [Compound 85, tert-butyl 4-(N,5-dimethyl-3-((pyridin-2-ylamino)methyl)-1H-indole-2-carboxamido)piperidine-1-carboxylate]
13 | 0.101 to 0.5 µM | O=C(c1nc2cc(C(F)(F)F)ccc2[nH]1)N(CCO)[C@@H]1CCCC[C@H]1OC(F)(F)F (racemic) [Compound 60, N-(2-hydroxyethyl)-N-((1R,2R)-2-(trifluoromethoxy)cyclohexyl)-5-(trifluoromethyl)-1H-benzo[d]imidazole-2-carboxamide]
14 | ≥ 1 µM | CN(C(=O)c1nc2c(C3COC3)cccc2[nH]1)C1CCCC1 [Compound 113, N-cyclopentyl-N-methyl-4-(oxetan-3-yl)-1H-benzo[d]imidazole-2-carboxamide]
15 | ≤ 0.1 µM | O=C(CN(C(=O)c1nc2cc(C(F)(F)F)ccc2[nH]1)c1cccc(Cl)c1Cl)N1CCC1 [Compound 202, N-(2-(azetidin-1-yl)-2-oxoethyl)-N-(2,3-dichlorophenyl)-5-(trifluoromethyl)-1H-benzo[d]imidazole-2-carboxamide]
16 | ≤ 0.1 µM | O=C(c1nc2cc(Cl)cc(F)c2[nH]1)N(CC(F)(F)CO)c1ccc(F)c(F)c1Cl [Compound 233]
17 | ≥ 1 µM | Cc1ccc2[nH]c(C(=O)N(C)C3CCCC(C)C3C)c(CO)c2c1 (stereo not shown) [Compound 35, N-(2,3-dimethylcyclohexyl)-3-(hydroxymethyl)-N,5-dimethyl-1H-indole-2-carboxamide]
18 | 0.101 to 0.5 µM | CS(=O)(=O)c1ccc2[nH]c(C(=O)N(CCO)c3cccc(Cl)c3Cl)nc2c1 [Compound 108, N-(2,3-dichlorophenyl)-N-(2-hydroxyethyl)-5-(methylsulfonyl)-1H-benzo[d]imidazole-2-carboxamide]
19 | ≤ 0.1 µM | O=C(c1nc2cc(C(F)(F)F)ccc2[nH]1)N(CC(F)(F)CO)c1ccc(F)cc1Cl [Compound 216, N-(2-chloro-4-fluorophenyl)-N-(2,2-difluoro-3-hydroxypropyl)-5-(trifluoromethyl)-1H-benzo[d]imidazole-2-carboxamide]
20 | 0.101 to 0.5 µM | O=C(c1nc2cc(C(F)(F)F)ccc2[nH]1)N(CCO)c1c(Cl)cccc1Cl [Compound 159, N-(2,6-dichlorophenyl)-N-(2-hydroxyethyl)-5-(trifluoromethyl)-1H-benzo[d]imidazole-2-carboxamide]
21 | ≥ 1 µM | CC(C)c1c[nH]c(C(=O)N(C)C2CCCC2)n1 [Compound 57, N-cyclopentyl-4-isopropyl-N-methyl-1H-imidazole-2-carboxamide]
22 | ≤ 0.1 µM | CC1CCC(C)C1N(CCO)C(=O)c1nc2cc(C(F)(F)F)ccc2[nH]1 (stereo not shown) [Compound 102, N-(2,5-dimethylcyclopentyl)-N-(2-hydroxyethyl)-5-(trifluoromethyl)-1H-benzo[d]imidazole-2-carboxamide]
23 | ≥ 1 µM | O=C(c1nc2c(Cl)c(-c3ccn[nH]3)ccc2[nH]1)N(CC1COC1)c1cccc(Cl)c1Cl [Compound 143]
24 | 0.501 to 1 µM | Cc1ccc2[nH]c(C(=O)NC(C)CC(C)C)c(CNc3ccccn3)c2c1 (stereo not shown) [Compound 89, 5-methyl-N-(4-methylpentan-2-yl)-3-((pyridin-2-ylamino)methyl)-1H-indole-2-carboxamide]
25 | ≤ 0.1 µM | Cc1c(F)cccc1N(CCO)C(=O)c1nc2cc(C(F)(F)F)ccc2[nH]1 [Compound 158, N-(3-fluoro-2-methylphenyl)-N-(2-hydroxyethyl)-5-(trifluoromethyl)-1H-benzo[d]imidazole-2-carboxamide]
26 | ≤ 0.1 µM | CC(c1cn[nH]c1)c1ccc2[nH]c(C(=O)N(CCO)c3cccc(Cl)c3Cl)nc2c1 (racemic) [Compound 189]
27 | ≤ 0.1 µM | CC(C)(O)c1ccc2[nH]c(C(=O)N(CCO)c3cccc(Cl)c3Cl)nc2c1 [Compound 150, N-(2,3-dichlorophenyl)-N-(2-hydroxyethyl)-5-(2-hydroxypropan-2-yl)-1H-benzo[d]imidazole-2-carboxamide]
28 | ≤ 0.1 µM | COC1CN(CCN(C(=O)c2nc3cc(C(F)(F)F)ccc3[nH]2)c2cccc(Cl)c2Cl)C1 [Compound 167, N-(2,3-dichlorophenyl)-N-(2-(3-methoxyazetidin-1-yl)ethyl)-5-(trifluoromethyl)-1H-benzo[d]imidazole-2-carboxamide]
